Experiments:
N-His-ObgGC (NGO1990) [1] = molecular target: T1, N-His-ObgGC (NGO1990) (Neisseria gonorrhoeae, UniProt Q5F5D9); test: single-turnover hydrolysis, decrease of mant fluorescence; assay type: biochemical; settings: 0.3 uM mant-GTP prebound to 16 uM protein, 5 mM MgCl2, pH 8.0, 37 C; first-order rate constant
T1 construct: gene obg

N-His-ObgGC (NGO1990) [2] = molecular target: T1, N-His-ObgGC (NGO1990); test: mant fluorescence enhancement, plate reader; assay type: binding; settings: 2 uM protein, 50 mM Tris-HCl pH 8.0, 50 mM KCl, 37 C

T1 sequence (Q5F5D9 whole entry): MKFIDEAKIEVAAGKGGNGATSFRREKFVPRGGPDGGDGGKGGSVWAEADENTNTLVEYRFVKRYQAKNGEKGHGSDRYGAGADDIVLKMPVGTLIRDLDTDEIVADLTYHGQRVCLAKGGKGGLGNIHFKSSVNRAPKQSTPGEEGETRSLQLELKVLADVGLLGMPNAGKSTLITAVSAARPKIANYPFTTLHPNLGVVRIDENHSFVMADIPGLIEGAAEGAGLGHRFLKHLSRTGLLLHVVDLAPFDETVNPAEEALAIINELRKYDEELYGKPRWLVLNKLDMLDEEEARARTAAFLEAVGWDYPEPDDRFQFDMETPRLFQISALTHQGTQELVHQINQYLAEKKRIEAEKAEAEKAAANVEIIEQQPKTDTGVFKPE

| SMILES | kh (N-His-ObgGC (NGO1990) [1]) [s⁻¹] | fold enhancement in mant-nucleotide fluorescence (N-His-ObgGC (NGO1990) [2]; 0.3 uM mant-GTP, 5 mM Mg2+) [fold] | fold enhancement in mant-nucleotide fluorescence (N-His-ObgGC (NGO1990) [2]; 0.3 uM mant-GDP, no Mg2+) [fold] |
| --- | --- | --- | --- |
| CNc1ccccc1C(=O)O[C@H]1[C@@H](O)[C@H](n2cnc3c(=O)[nH]c(N)nc32)O[C@@H]1COP(=O)(O)OP(=O)(O)OP(=O)(O)O [mant-GTP] | 0.00023 | 1.9 | – |
| CNc1ccccc1C(=O)O[C@H]1[C@@H](O)[C@H](n2cnc3c(=O)[nH]c(N)nc32)O[C@@H]1COP(=O)(O)OP(=O)(O)O [mant-GDP] | – | – | 1.3 |
